The values that follow come from patent US20220170930A1, “METHOD FOR SCREENING COMPOUND FOR TREATING OR PREVENTING POLYQ-RELATED NEURODEGENERATIVE DISEASES” (FUDAN UNIVERSITY, priority 2019, published 2022).

The test system of one data set is SQSTM1/p62. The experiment in a line: SQSTM1/p62 level in mouse cortices after ip injection. It is filed as in vivo. The conditions noted are these: HD mice. As to the method: Using a method similar to 6.2, Hdh^Q140/Q7 mice were administered with injections. A method similar to 7.1 was used to detect the effects of ip-injection of compounds on other known autophagy selective substrate proteins (SQSTM1/p62) in the cortical tissue of Hdh^Q140/Q7 mice.

In the next data set the target is Q38-GFP. The experiment in a line: OI-RD affinity reaction parameters with Q38-GFP. It is filed as binding. The source says:
(1) PolyQ-GFP cDNA sequence (expressing Met-polyQ-GFP, wherein polyQ was Q72 or Q25) was synthesized de novo and subcloned into pcDNA vector. […] And the same method was used to obtain cells expressing Q53-GFP, cells expressing Q46-GFP, and cells expressing Q38-GFP.

For the next data set, the target named is T1, MBP-ATXN3-Q28 (Homo sapiens, UniProt P54252, INS305QQQQQQQQQQQQQQQQQQ).
T1 construct: His8 with TEV protease cleavage site; made in house; host or cells: Escherichia coli Rosetta(DE3)pLsyS
T1 sequence (P54252 with tags, fused parts or gaps isoform P54252-4 with the stated changes): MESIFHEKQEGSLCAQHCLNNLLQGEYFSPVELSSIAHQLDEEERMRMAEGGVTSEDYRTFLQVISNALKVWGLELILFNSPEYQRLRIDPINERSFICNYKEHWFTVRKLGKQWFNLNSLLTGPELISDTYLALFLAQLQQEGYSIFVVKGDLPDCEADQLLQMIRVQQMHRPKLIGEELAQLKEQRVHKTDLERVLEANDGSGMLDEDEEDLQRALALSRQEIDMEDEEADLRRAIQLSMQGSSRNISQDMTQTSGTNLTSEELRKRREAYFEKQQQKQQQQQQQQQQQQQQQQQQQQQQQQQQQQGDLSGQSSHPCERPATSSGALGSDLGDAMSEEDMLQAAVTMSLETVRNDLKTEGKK
Kind of data set: MST affinity with MBP-ATXN3-Q28. Type of data set: binding. As to the method:
Protein concentration was 500 nM.

In data set [1] the target is T2, wild-type ATXN3 protein (ATXN3-Q27) (Homo sapiens, UniProt P54252, G306R/INS305QQQQQQQQQQQQQQQQQ/V212M).
T2 construct: endogenous in cells; host or cells: wild-type fibroblasts (Q27) and/or the normal allele in SCA3 patient fibroblasts
T2 sequence (P54252 with tags, fused parts or gaps isoform P54252-1 with the stated changes): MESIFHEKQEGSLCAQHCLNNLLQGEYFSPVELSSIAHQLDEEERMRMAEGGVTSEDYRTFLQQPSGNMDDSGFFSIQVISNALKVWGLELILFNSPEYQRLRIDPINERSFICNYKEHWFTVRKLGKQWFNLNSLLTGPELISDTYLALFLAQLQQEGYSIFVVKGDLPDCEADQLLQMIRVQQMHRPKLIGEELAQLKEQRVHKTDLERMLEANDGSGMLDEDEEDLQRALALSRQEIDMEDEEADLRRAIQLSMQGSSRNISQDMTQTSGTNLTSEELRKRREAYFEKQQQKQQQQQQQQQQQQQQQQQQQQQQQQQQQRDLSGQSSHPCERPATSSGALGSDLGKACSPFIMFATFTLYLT
Kind of data set: Western-blot wild-type ATXN3 level in fibroblasts. Type of data set: cell-based. The conditions noted are these: 100 nM (compound 4: 50 nM), 2 days. As to the method:
Then the levels of mutant ATXN3 protein (ATXN3-Q74, SEQ ID NO: 2) and wild-type ATXN3 protein (ATXN3-Q27, SEQ ID NO: 7) were determined by Western-blots (FIG. 26). […] Therefore, the compound of the present invention can be used to treat SCA3.

The next data set is described as follows: in vivo. The conditions noted are these: mouse, ip, 0.5 mg/kg.

Molecules are shown by their SMILES. pKd: −log10 of the molar value.

In the case of `O=C1Nc2ccc(I)cc2/C1=C/c1cc(Br)c(O)c(Br)c1` [compound 1, GW5074], the “level of SQSTM1/p62 in the cortices” value in the data set on SQSTM1/p62 is listed as “did not change”. At Q38-GFP, this molecule had a pKd of 5.72, a Koff of 0.000338 s⁻¹ and a Kon of 1.06e-05 min/nM. Moreover, the “binding affinity with normal ATXN3 protein (MBP-ATXN3-Q28)” value at MBP-ATXN3-Q28 was “no binding affinity”. Moreover, in data set [1], the “wild-type ATXN3 protein level” value is “no decrease in wild-type ATXN3 protein level was observed”. In addition, the concentration at 2 h in the data set “in vivo” came out at 81 ng/g.
